Measurements taken from ChEMBL document CHEMBL4840335, “Rational Design and Development of Novel CDK9 Inhibitors for the Treatment of Acute Myeloid Leukemia” (J Med Chem, 2021).
Active and inactive are the calls of the source. The calls are words filed in the database; no cut-off is given here.

Key:
[1] = Antiproliferative activity against human MINO cells assessed as reduction in cell proliferation measured after 3 to 7 days by MTS assay; type: functional, cell-based
[2] = test system: MV4-11; assay: Antitumor activity against human MV4-11 cells xenografted in Nu/Nu mouse assessed as change in tumor volume at 7.5 mg/kg, po administered for 21 consecutive days by digital caliper method and measured on day 22 (reference value: 127 +/- 16 mm3); type: functional; conditions: time 22 day
[3] = molecular target: Serine/threonine-protein kinase 17B (Homo sapiens, UniProt O94768); assay: Inhibition of DRAK2 (unknown origin)
Chain of Serine/threonine-protein kinase 17B (O94768 whole entry): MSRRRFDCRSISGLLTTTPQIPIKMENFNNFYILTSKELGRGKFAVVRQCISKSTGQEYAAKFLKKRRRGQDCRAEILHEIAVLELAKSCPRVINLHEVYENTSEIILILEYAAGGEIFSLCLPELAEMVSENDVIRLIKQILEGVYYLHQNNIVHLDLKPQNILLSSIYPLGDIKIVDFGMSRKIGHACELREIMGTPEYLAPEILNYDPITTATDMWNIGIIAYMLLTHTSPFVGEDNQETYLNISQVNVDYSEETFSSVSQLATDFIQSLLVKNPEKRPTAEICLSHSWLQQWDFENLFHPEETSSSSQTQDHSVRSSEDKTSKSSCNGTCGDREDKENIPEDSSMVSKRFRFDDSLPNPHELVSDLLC

[4] = AUClast in ICR mouse at 20 mg/kg, po measured up to 24 hrs; type: ADME, organism-based; design: route oral, dose 20 mg/kg, time <=24; conditions: in vivo
[5] = molecular target: Cyclin-dependent kinase 2 (Homo sapiens, UniProt P24941); assay: Inhibition of CDK2 (unknown origin)
[6] = test system: MV4-11; assay: Antiproliferative activity against human MV4-11 cells assessed as reduction in cell proliferation measured after 3 to 7 days by MTS assay; type: functional, cell-based
[7] = test system: JeKo-1; assay: Antiproliferative activity against human JeKo-1 cells assessed as reduction in cell proliferation measured after 3 to 7 days by MTS assay; type: functional, cell-based
[8] = test system: MV4-11; assay: Induction of apoptosis in human MV4-11 cells assessed as necrotic cells at 50 nM measured after 24 hrs by annexinV-FITC/propidium iodide staining based flow cytometry (reference value: 1.03 %); type: functional
[9] = molecular target: Vascular endothelial growth factor receptor 2 (Homo sapiens, UniProt P35968); assay: Inhibition of KDR (unknown origin)
Chain of Vascular endothelial growth factor receptor 2 (P35968 whole entry): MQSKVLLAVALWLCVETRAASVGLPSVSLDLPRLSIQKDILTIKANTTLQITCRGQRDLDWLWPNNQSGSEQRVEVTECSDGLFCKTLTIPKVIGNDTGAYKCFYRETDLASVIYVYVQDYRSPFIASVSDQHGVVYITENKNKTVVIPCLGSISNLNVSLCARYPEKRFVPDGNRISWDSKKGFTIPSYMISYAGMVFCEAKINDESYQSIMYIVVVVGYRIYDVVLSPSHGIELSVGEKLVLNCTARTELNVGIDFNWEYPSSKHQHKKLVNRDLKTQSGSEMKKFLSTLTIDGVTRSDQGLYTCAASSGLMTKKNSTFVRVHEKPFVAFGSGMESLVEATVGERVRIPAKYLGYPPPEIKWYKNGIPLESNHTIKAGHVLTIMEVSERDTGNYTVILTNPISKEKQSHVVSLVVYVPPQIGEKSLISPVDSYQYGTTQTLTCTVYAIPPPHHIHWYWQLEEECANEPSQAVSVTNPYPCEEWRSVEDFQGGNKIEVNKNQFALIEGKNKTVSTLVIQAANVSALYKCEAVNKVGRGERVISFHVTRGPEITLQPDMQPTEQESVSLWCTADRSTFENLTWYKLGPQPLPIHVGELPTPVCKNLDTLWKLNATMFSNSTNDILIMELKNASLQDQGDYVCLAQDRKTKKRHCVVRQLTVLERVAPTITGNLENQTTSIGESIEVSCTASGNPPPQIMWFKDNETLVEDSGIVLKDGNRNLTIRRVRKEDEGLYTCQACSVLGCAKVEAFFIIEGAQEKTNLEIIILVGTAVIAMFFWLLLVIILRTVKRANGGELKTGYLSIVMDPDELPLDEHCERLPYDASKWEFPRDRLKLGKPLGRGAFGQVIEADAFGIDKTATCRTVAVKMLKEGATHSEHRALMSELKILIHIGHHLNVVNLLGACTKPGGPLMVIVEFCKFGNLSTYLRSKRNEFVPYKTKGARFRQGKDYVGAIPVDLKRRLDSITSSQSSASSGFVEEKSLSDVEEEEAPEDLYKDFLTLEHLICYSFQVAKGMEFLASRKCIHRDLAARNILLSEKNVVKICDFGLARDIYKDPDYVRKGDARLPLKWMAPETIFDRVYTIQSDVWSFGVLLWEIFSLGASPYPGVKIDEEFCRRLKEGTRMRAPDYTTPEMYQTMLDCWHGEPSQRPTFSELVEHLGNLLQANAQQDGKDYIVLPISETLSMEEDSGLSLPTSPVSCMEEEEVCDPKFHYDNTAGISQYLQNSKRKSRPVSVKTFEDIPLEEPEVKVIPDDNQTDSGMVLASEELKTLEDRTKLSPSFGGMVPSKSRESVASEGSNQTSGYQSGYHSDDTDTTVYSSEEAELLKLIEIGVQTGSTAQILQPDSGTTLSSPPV

[10] = test system: MV4-11; assay: Induction of apoptosis in human MV4-11 cells assessed as early apoptotic cells at 10 nM measured after 24 hrs by annexinV-FITC/propidium iodide staining based flow cytometry (reference value: 0.79 %); type: functional
[11] = molecular target: Insulin receptor (Homo sapiens, UniProt P06213); assay: Inhibition of IR (unknown origin)
[12] = Toxicity in Nu/Nu mouse xenografted with human MV4-11 cells assessed as body weight loss at 7.5 mg/kg, po administered for 21 consecutive days relative to control; type: organism-based; conditions: in vivo, 504 h, time 21 day
[13] = test system: MV4-11; assay: Induction of apoptosis in human MV4-11 cells assessed as live cells at 50 nM measured after 24 hrs by annexinV-FITC/propidium iodide staining based flow cytometry (reference value: 95.14 %); type: functional
[14] = Oral bioavailability in ICR mouse at 20 mg/kg measured up to 24 hrs; type: ADME, organism-based; conditions: in vivo
[15] = test system: RPMI-8226; assay: Antiproliferative activity against human RPMI-8226 cells assessed as reduction in cell proliferation measured after 3 to 7 days by MTS assay; type: functional, cell-based
[16] = molecular target: Fibroblast growth factor receptor 3 (Homo sapiens, UniProt P22607); assay: Inhibition of FGFR3 (unknown origin)
[17] = Observed AUC infinity in ICR mouse at 20 mg/kg, po measured up to 24 hrs; type: ADME, organism-based; design: route oral, dose 20 mg/kg, time <=24; conditions: in vivo
[18] = molecular target: Cyclin-dependent kinase 6 (Homo sapiens, UniProt Q00534); assay: Inhibition of CDK6 (unknown origin)
Chain of Cyclin-dependent kinase 6 (Q00534 whole entry): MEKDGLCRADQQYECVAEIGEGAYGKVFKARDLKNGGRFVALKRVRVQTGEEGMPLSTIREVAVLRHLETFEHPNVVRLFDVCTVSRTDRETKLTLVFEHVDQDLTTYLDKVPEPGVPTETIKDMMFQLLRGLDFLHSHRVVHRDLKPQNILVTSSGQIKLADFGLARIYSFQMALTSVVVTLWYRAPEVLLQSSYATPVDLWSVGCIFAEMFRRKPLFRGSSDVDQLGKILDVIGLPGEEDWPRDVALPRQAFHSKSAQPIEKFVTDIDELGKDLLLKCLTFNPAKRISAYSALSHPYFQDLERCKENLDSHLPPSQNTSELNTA

[19] = test system: Kasumi 1; assay: Antiproliferative activity against human Kasumi 1 cells assessed as reduction in cell proliferation measured after 3 to 7 days by MTS assay; type: functional, cell-based
[20] = molecular target: Vascular endothelial growth factor receptor 1 (Homo sapiens, UniProt P17948); assay: Inhibition of VEGFR1 (unknown origin)
[21] = molecular target: Aurora kinase A (Homo sapiens, UniProt O14965); assay: Inhibition of AURKA (unknown origin)
Chain of Aurora kinase A (O14965 whole entry): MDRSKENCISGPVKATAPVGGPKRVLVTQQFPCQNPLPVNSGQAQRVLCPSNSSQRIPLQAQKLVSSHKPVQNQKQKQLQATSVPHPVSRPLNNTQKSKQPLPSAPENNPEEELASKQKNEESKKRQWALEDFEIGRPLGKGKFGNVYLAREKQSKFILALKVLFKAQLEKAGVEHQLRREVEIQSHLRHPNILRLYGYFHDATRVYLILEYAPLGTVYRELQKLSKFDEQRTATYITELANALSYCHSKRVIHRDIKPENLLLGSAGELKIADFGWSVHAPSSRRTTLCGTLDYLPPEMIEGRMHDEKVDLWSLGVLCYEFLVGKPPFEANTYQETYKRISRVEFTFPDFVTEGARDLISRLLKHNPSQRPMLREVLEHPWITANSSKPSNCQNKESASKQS

[22] = test system: TMD8; assay: Antiproliferative activity against human TMD8 cells assessed as reduction in cell proliferation measured after 3 to 7 days by MTS assay; type: functional, cell-based
[23] = test system: MV4-11; assay: Induction of apoptosis in human MV4-11 cells assessed as live cells at 10 nM measured after 24 hrs by annexinV-FITC/propidium iodide staining based flow cytometry (reference value: 95.14 %); type: functional
[24] = test system: MV4-11; assay: Antitumor activity against human MV4-11 cells xenografted in Nu/Nu mouse assessed as tumor growth suppression by measuring T/C ratio at 7.5 mg/kg, po administered for 21 consecutive days by digital caliper method relative to control; type: functional; conditions: time 21 day
[25] = test system: Raji; assay: Antiproliferative activity against human Raji cells assessed as reduction in cell proliferation measured after 3 to 7 days by MTS assay; type: functional, cell-based
[26] = test system: MV4-11; assay: Antitumor activity against human MV4-11 cells xenografted in Nu/Nu mouse assessed as relative tumor volume at 7.5 mg/kg, po administered for 21 consecutive days by digital caliper method; type: functional; conditions: time 22 day
[27] = molecular target: Wee1-like protein kinase (Homo sapiens, UniProt P30291); assay: Inhibition of WEE1 (unknown origin)
[28] = molecular target: Platelet-derived growth factor receptor beta (Homo sapiens, UniProt P09619); assay: Inhibition of PDGFRB (unknown origin)
Chain of Platelet-derived growth factor receptor beta (P09619 whole entry): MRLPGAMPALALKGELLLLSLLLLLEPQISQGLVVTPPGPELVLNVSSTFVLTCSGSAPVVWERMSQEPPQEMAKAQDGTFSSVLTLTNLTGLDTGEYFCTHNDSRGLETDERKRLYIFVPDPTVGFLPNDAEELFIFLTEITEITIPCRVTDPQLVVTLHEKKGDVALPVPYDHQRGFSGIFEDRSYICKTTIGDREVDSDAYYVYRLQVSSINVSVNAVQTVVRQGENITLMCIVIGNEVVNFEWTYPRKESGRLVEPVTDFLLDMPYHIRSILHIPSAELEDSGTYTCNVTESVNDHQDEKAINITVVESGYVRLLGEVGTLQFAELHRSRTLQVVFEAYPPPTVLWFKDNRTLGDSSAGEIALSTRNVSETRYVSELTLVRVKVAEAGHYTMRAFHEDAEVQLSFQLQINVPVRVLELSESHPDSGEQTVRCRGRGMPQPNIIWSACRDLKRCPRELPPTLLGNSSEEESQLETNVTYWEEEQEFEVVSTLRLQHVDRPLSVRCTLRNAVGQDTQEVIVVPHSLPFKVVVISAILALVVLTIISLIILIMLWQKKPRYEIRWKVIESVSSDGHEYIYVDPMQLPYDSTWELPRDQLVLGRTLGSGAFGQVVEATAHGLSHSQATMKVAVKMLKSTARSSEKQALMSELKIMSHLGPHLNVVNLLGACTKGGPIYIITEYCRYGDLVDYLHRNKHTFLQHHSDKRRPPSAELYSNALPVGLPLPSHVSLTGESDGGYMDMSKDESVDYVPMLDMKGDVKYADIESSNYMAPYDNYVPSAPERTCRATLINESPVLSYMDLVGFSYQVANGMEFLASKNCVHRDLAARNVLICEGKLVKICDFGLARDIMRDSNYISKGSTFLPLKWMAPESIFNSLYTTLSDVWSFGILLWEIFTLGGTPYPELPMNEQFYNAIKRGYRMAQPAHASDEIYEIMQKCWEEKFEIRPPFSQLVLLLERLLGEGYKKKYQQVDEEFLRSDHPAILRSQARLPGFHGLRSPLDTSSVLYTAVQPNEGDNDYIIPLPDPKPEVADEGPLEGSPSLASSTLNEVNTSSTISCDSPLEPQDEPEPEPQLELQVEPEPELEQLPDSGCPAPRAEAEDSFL

[29] = molecular target: Tyrosine-protein kinase receptor TYRO3 (Homo sapiens, UniProt Q06418); assay: Inhibition of TYRO3 (unknown origin)
[30] = test system: MV4-11; assay: Induction of apoptosis in human MV4-11 cells assessed as late apoptotic cells at 50 nM measured after 24 hrs by annexinV-FITC/propidium iodide staining based flow cytometry (reference value: 3.04 %); type: functional
[31] = test system: OCI-Ly10; assay: Antiproliferative activity against human OCILY10 cells assessed as reduction in cell proliferation measured after 3 to 7 days by MTS assay; type: functional, cell-based
[32] = molecular target: Tyrosine-protein kinase BTK (Homo sapiens, UniProt Q06187); assay: Inhibition of BTK (unknown origin)
[33] = molecular target: Receptor tyrosine-protein kinase erbB-4 (Homo sapiens, UniProt Q15303); assay: Inhibition of ErbB4 (unknown origin)
Chain of Receptor tyrosine-protein kinase erbB-4 (Q15303 whole entry): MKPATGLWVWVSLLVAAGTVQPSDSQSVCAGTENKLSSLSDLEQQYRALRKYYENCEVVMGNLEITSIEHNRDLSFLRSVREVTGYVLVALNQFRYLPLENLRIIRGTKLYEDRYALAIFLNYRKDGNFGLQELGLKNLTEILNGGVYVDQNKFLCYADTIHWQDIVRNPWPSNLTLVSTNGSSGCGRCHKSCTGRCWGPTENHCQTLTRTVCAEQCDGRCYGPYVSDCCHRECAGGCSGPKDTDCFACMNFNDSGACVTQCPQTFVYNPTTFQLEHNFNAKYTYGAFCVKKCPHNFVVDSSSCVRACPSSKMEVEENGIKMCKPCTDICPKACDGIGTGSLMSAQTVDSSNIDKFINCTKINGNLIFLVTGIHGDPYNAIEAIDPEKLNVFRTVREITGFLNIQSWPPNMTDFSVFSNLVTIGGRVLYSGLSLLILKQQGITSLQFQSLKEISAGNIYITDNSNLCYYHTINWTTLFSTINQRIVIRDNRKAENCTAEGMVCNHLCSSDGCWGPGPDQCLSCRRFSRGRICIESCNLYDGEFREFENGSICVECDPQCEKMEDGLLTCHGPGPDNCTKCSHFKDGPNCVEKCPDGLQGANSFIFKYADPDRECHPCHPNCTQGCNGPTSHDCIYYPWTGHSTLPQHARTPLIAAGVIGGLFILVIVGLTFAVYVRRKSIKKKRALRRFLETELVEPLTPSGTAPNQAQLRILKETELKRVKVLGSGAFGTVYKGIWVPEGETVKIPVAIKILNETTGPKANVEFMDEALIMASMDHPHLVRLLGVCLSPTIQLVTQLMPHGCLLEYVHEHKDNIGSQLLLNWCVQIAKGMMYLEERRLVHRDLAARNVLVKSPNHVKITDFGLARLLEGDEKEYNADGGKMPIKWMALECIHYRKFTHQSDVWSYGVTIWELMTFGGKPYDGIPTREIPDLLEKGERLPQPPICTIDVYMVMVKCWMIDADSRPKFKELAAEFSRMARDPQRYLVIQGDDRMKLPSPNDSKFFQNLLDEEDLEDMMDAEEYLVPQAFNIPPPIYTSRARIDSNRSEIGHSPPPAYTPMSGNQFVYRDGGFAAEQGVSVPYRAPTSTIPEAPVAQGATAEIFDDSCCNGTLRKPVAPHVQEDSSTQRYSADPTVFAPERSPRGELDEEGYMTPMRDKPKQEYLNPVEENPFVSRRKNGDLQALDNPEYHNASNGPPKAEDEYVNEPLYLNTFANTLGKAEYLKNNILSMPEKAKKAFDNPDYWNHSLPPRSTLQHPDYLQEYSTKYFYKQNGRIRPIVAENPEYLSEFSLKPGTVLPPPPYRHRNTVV

[34] = test system: HL-60; assay: Antiproliferative activity against human HL-60 cells assessed as reduction in cell proliferation measured after 3 to 7 days by MTS assay; type: functional, cell-based
[35] = test system: MV4-11; assay: Induction of apoptosis in human MV4-11 cells assessed as activation of caspase-3 at 5 to 50 nM measured after 24 hrs by Western blot analysis; type: functional, cell-based; conditions: dose 5-50 nM
[36] = molecular target: Receptor tyrosine-protein kinase erbB-2 (Homo sapiens, UniProt P04626); assay: Inhibition of ErbB2 (unknown origin)
[37] = Cmax in ICR mouse at 20 mg/kg, po measured up to 24 hrs; type: ADME, organism-based; design: route oral, dose 20 mg/kg, time <=24; conditions: in vivo
[38] = test system: MV4-11; assay: Induction of apoptosis in human MV4-11 cells assessed as early apoptotic cells at 50 nM measured after 24 hrs by annexinV-FITC/propidium iodide staining based flow cytometry (reference value: 0.79 %); type: functional
[39] = test system: MV4-11; assay: Induction of apoptosis in human MV4-11 cells assessed as downregulation of BCL2 at 1 to 10 uM measured after 12 hrs by Western blot analysis; type: functional, cell-based; conditions: dose 1-10 µM
[40] = molecular target: CDK9/cyclin T1 (Homo sapiens, UniProt P50750); assay: Inhibition of CDK9/cyclin T1 (unknown origin) incubated for 2 hrs in presence of ATP by FRET based LANCE assay; type: protein-complex assay
[41] = molecular target: Discoidin domain-containing receptor 2 (Homo sapiens, UniProt Q16832); assay: Inhibition of DDR2 (unknown origin)
[42] = molecular target: ALK tyrosine kinase receptor (Homo sapiens, UniProt Q9UM73); assay: Inhibition of ALK (unknown origin)
[43] = Observed clearance in ICR mouse at 2 mg/kg, iv measured up to 24 hrs; type: ADME, organism-based; conditions: in vivo

- IC50 [3]: > 1000 nM
- AUC(0-t) at 24 h [4]: 1760 ng·h/mL
- IC50 [5]: 164 nM
- IC50 [6]: 1.6 nM
- IC50 [9]: > 1000 nM
- IC50 [11]: > 1000 nM
- bioavailability [14]: 33.7%
- IC50 [15]: 5.4 nM
- IC50 [16]: > 1000 nM
- AUC(0-inf) [17]: 1880 ng·h/mL
- IC50 [18]: > 1000 nM
- IC50 [20]: > 1000 nM
- IC50 [21]: > 1000 nM
- IC50 [25]: 37 nM
- IC50 [27]: > 1000 nM
- IC50 [28]: > 1000 nM
- IC50 [29]: > 1000 nM
- IC50 [31]: 3.2 nM
- IC50 [32]: > 1000 nM
- IC50 [33]: > 1000 nM
- IC50 [34]: 44 nM
- IC50 [36]: > 1000 nM
- Cmax [37]: 1570 ng/mL
- IC50 [40]: 5.41 nM
- IC50 [41]: > 1000 nM
- IC50 [42]: > 1000 nM
- clearance [43]: 60 mL/min/kg
SMILES: Cc1n[nH]c2ccc(-c3cc(N[C@@H](CO)c4ccccc4)cnc3Cl)cc12
- IC50 [1]: 8.4 nM
- Activity [2]: 371 mm3
- IC50 [7]: 46 nM
- Activity [8]: 3.59%
- Activity [10]: 1.76%
- Activity [12]: < 10%
- Activity [13]: 76.29%
- IC50 [19]: 21 nM
- IC50 [22]: 46 nM
- Activity [23]: 94.45%
- T/C [24]: 27.8%
- Activity [26]: 2.86
- Activity [30]: 16.89%
- Activity [35]: Active
- Activity [38]: 3.23%
- Activity [39]: inactive
